From patent US20220273683A1, “BORON-CONTAINING SMALL MOLECULES” (Bill & Melinda Gates Foundation, priority 2016, published 2022)
Values after ≈ are worked out from the molar mass of the structure shown.

What was measured:
Type in all cases: cell-based
[1] = test system: Staphylococcus aureus, MRSA (ATCC 33591); assay: Antibacterial MIC assay (microbroth dilution, CLSI); settings: 35° C., 16-20 hours; for MIC: Staphylococcus aureus
Method in brief: (§1)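 Compound 2-fold dilution series tested against 5×10^5 CFU/mL bacteria prepared from 0.5 McFarland saline suspensions of overnight colonies. Medium was cation-adjusted Mueller-Hinton broth, supplemented with 3% lysed horse blood for the fastidious pneumococcus. Protocol followed CLSI M07-A10 and M100-S25.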

[2] = test system: Streptococcus pneumoniae (ATCC 49619); assay: as above; settings: 35° C., 16-20 hours; for MIC Streptococcus pneumoniae (ATCC 49619): 3% lysed horse blood; for MIC: Streptococcus pneumoniae, ATCC49619, 3% lysed horse blood
Method in brief: as §1

[3] = test system: Wolbachia pipientis in C6/36 cell line; assay: Anti-Wolbachia high-content assay; settings: C6/36 (wAlbB) cells, 7 days at 26° C., 50% reduction of Wolbachia
Text: C6/36 cells (ECACC #89051705, derived from Aedes albopictus larvae) were infected with Wolbachia pipientis derived from the supernatant of cultured A. albopictus Aa23 cells to create a stably Wolbachia-infected cell line C6/36 (wAlbB). This cell line was subpassaged 6-8 days prior to plating out at a density of 2000 viable cells per well in a 384-well CellCarrier plate suspended in Liebovitz media supplemented with 20% fetal bovine serum, 2% tryptose phosphate broth and 1% non-essential amino acids. Compounds were dissolved and diluted in DMSO, and compound solution was added to each well to provide a final DMSO concentration <1% and a total volume of 100 μL per well. Following 7 days of sterile incubation at 26° C., staining media containing SYTO 11 DNA dye was added to each well. After 15 minutes, all media was removed from each well and fresh media (no stain) was added. Imaging of each well was accomplished using a Perkin Elmer Operetta high-content imaging system. Five fields per well were imaged using a confocal 60× objective with the Fluorescein filter (excitation filter: 460-490 nm; emission filter: 500-550 nm). Images were analyzed using the Perkin Elmer Harmony software to score each intact cell on the basis of texture complexity of the cytoplasm. Full details can be found in: […]. Biomol. Screening, 2015, 20, […]. Compound sample wells were analyzed and normalized (along with the positive controls) against the vehicle (untreated) control to give a percentage reduction of Wolbachia-infected cells. Using the cell number analysis, compounds with a host cell number amounting to less than 50% of the vehicle control were classified as toxic and retested at a reduced compound concentration. Dose-response curves were generated with percentage reduction of Wolbachia-infected cells versus compound concentration, using 5-10 compound serial dilutions. Data were analyzed and compound EC50 is determined using a 4 parameter logistic nonlinear regression model.

| MIC Staphylococcus aureus, MRSA (ATCC 33591) [1] | MIC Streptococcus pneumoniae (ATCC 49619) [2] | EC50 [3] | SMILES | MIC [1] | MIC [2] | EC50 ([3]; Wolbachia pipientis) |
| --- | --- | --- | --- | --- | --- | --- |
| B (0.5-2 is B) | B (0.5-2 is B) | > 1000 nM | CNC(=O)CC[C@]1(C)C[C@@H](OC(=O)COc2ccc3c(c2F)B(O)OC3)[C@]2(C)[C@H](C)CC[C@]3(CCC(=O)[C@H]32)[C@@H](C)[C@@H]1O [Compound 3, (3aR,4R,5R,7R,8S,9R,9aS,12R)-8-hydroxy-4,7,9,12-tetramethyl-7-(3-(methylamino)-3-oxopropyl)-3-oxodecahydro-4,9a-propanocyclopenta[8]annulen-5-yl2-((7-fluoro-1-hydroxy-1,3-dihydrobenzo[c][1,2]oxaborol-6-yl)oxy)acetate] |  |  |  |
| B (0.5-2 is B) | B (0.5-2 is B) | 283 nM | CCNC(=O)CC[C@]1(C)C[C@@H](OC(=O)COc2ccc3c(c2F)B(O)OC3)[C@]2(C)[C@H](C)CC[C@]3(CCC(=O)[C@H]32)[C@@H](C)[C@@H]1O [Compound 4, (3aR,4R,5R,7R,8S,9R,9aS,12R)-7-(3-(ethylamino)-3-oxopropyl)-8-hydroxy-4,7,9,12-tetramethyl-3-oxodecahydro-4,9a-propanocyclopenta[8]annulen-5-yl2-((7-fluoro-1-hydroxy-1,3-dihydrobenzo[c][1,2]oxaborol-6-yl)oxy)acetate] |  |  |  |
| B (0.5-2 is B) | B (0.5-2 is B) | 305 nM | CCCCNC(=O)CC[C@]1(C)C[C@@H](OC(=O)COc2ccc3c(c2F)B(O)OC3)[C@]2(C)[C@H](C)CC[C@]3(CCC(=O)[C@H]32)[C@@H](C)[C@@H]1O [Compound 5, (3aR,4R,5R,7R,8S,9R,9aS,12R)-7-(3-(butylamino)-3-oxopropyl)-8-hydroxy-4,7,9,12-tetramethyl-3-oxodecahydro-4,9a-propanocyclopenta[8]annulen-5-yl2-((7-fluoro-1-hydroxy-1,3-dihydrobenzo[c][1,2]oxaborol-6-yl)oxy)acetate] |  |  |  |
| B (0.5-2 is B) | B (0.5-2 is B) | 392 nM | C[C@@H]1CC[C@@]23CCC(=O)[C@H]2[C@]1(C)[C@H](OC(=O)COc1ccc2c(c1F)B(O)OC2)C[C@@](C)(CCC(=O)NC1CC1)[C@@H](O)[C@@H]3C [Compound 6, (3aR,4R,5R,7R,8S,9R,9aS,12R)-7-(3-(cyclopropylamino)-3-oxopropyl)-8-hydroxy-4,7,9,12-tetramethyl-3-oxodecahydro-4,9a-propanocyclopenta[8]annulen-5-yl2-((7-fluoro-1-hydroxy-1,3-dihydrobenzo[c][1,2]oxaborol-6-yl)oxy)acetate] |  |  |  |
|  |  |  | COC(=O)/C=C/[C@]1(C)C[C@@H](OC(=O)COc2ccc3c(c2F)B(O)OC3)[C@]2(C)[C@H](C)CC[C@]3(CCC(=O)[C@H]32)[C@@H](C)[C@@H]1O [Compound 12, methyl (E)-3-((3aR,4R,5R,7S,8S,9R,9aS,12R)-5-(2-((7-fluoro-1-hydroxy-1,3-dihydrobenzo[c][1,2]oxaborol-6-yl)oxy)acetoxy)-8-hydroxy-4,7,9,12-tetramethyl-3-oxodecahydro-4,9a-propanocyclopenta[8]annulen-7-yl)acrylate] | < 0.25 µg/mL | < 0.25 µg/mL | 81 nM |
|  |  |  | C[C@@H]1CC[C@@]23CCC(=O)[C@H]2[C@]1(C)[C@H](OC(=O)COc1ccc2c(c1F)B(O)OC2)C[C@@](C)(/C=C/C(=O)O)[C@@H](O)C3 [Compound 13, (E)-3-((3aR,4R,5R,7S,8S,9aS,12R)-5-(2-((7-fluoro-1-hydroxy-1,3-dihydrobenzo[c][1,2]oxaborol-6-yl)oxy)acetoxy)-8-hydroxy-4,7,12-trimethyl-3-oxodecahydro-4,9a-propanocyclopenta[8]annulen-7-yl)acrylic acid] | 4 to 32 µg/mL (≈ 7.16 to 57.3 µM) | > 64 µg/mL | > 1000 nM |
| D (≥64 is D) | D (≥64 is D) | > 1000 nM | CNC[C@H](O)[C@]1(C)C[C@@H](OC(=O)COc2ccc3c(c2F)B(O)OC3)[C@]2(C)[C@H](C)CC[C@]3(CCC(=O)[C@H]32)[C@@H](C)[C@@H]1O [Compound 28, (3aR,4R,5R,7R,8S,9R,9aS,12R)-8-hydroxy-7-((R)-1-hydroxy-2-(methylamino)ethyl)-4,7,9,12-tetramethyl-3-oxodecahydro-4,9a-propanocyclopenta[8]annulen-5-yl2-((7-fluoro-1-hydroxy-1,3-dihydrobenzo[c][1,2]oxaborol-6-yl)oxy)acetate] |  |  |  |
| C (4-32 is C) | D (≥64 is D) | > 1000 nM | C[C@@H]1CC[C@@]23CCC(=O)[C@H]2[C@]1(C)[C@H](OC(=O)COc1ccc2c(c1F)B(O)OC2)C[C@@](C)(CNS(C)(=O)=O)[C@@H](OS(C)(=O)=O)[C@@H]3C [Compound 49, (3aR,4R,5R,7S,8S,9R,9aS,12R)-4,7,9,12-tetramethyl-7-(methylsulfonamidomethyl)-8-((methylsulfonyl)oxy)-3-oxodecahydro-4,9a-propanocyclopenta[8]annulen-5-yl2-((7-fluoro-1-hydroxy-1,3-dihydrobenzo[c][1,2]oxaborol-6-yl)oxy)acetate] |  |  |  |

| SMILES | MIC Staphylococcus aureus, MRSA (ATCC 33591) [1] | MIC Streptococcus pneumoniae (ATCC 49619) [2] | EC50 [3] | MIC [1] | MIC [2] | EC50 ([3]; Wolbachia pipientis) |
| --- | --- | --- | --- | --- | --- | --- |
| CC[C@]1(C)C[C@@H](OC(=O)COc2cc(CN)c3c(c2)B(O)OC3)[C@]2(C)[C@H](C)CC[C@]3(CCC(=O)[C@H]32)[C@@H](C)[C@@H]1O [Compound 20, (3aR,4R,5R,7R,8S,9R,9aS,12R)-7-ethyl-8-hydroxy-4,7,9,12-tetramethyl-3-oxodecahydro-4,9a-propanocyclopenta[8]annulen-5-yl2-((4-(aminomethyl)-1-hydroxy-1,3-dihydrobenzo[c][1,2]oxaborol-6-yl)oxy)acetate] | A (MIC of ≤0.25 is A) | B (0.5-2 is B) | 101 nM |  |  |  |
